Experimental findings from paper PMC9945734 (BMC Medicine, 2023) are described below.

Structures can show the parent of a compound that is named as a salt. Where two headings read alike, the source gives them in different places.

In this test the test system is PC-3-KQ cells. As to the kind of experiment: 3D spheroid invasion assay and screening of FDA-approved drugs. The format is cell-based, human. The following applies: compared to vehicle control; for activity at 0.01 µM / activity at 0.1 µM / activity at 1 µM / activity at 10 µM: Homo sapiens, 72 h. As to the method:
The invasion assay was performed as previously described. […] The plates were then centrifuged at 320 g for 4 min to cluster cells in the bottom of wells and incubated for 3 days. On the fourth day, 40 μL medium was removed from each well, 40 μL of the matrigel-medium mixture was added to each well, and cells were cultured for another 3 days. […] At the end of the incubation, images were taken using a phase contrast microscope (Eclipse Ti2, Nikon, Tokyo, Japan) with 10× object lenses, and the total area of cells and the core sphere area of cells (Fig. 1a) were measured using the Image J software. The invading area was calculated using the following formula: invasion area = total area of cells – core sphere area.
For drug screening, drugs were added to the matrigel-medium mixture when replacing the culture medium on day 4. For the initial round of screening, a final concentration of 10 μM was used for all drugs. Multiple drug concentrations were used for the second round of screening, including 0, 0.001, 0.01, 0.1, 1, and 10 μM. Duplicate wells were repeated for each concentration.

The mark [1] stands for this setting: 0.01 μM (first column so headed), secondary screening of 87 hit compounds (Table S1), read-out: Invasion rates (%) of each drug’s multiple concentrations.
Setting [2] is: 0.01 μM (second column so headed), secondary screening of 87 hit compounds (Table S1), read-out: Invasion rates (%) of each drug’s multiple concentrations.
The mark [3] stands for this setting: 0.1 μM, secondary screening of 87 hit compounds (Table S1), read-out: Invasion rates (%) of each drug’s multiple concentrations.
[4] abbreviates: 1 μM, secondary screening of 87 hit compounds (Table S1), read-out: Invasion rates (%) of each drug’s multiple concentrations.
[5] abbreviates: 10 μM, secondary screening of 87 hit compounds (Table S1), read-out: Invasion rates (%) of each drug’s multiple concentrations.
The mark [6] stands for this setting: 0.01 μM (first column so headed), secondary screening of 87 hit compounds (Table S1).
Where [7] appears, read: 0.01 μM (second column so headed), secondary screening of 87 hit compounds (Table S1).
The mark [8] stands for this setting: 0.1 μM, secondary screening of 87 hit compounds (Table S1).
Where [9] appears, read: 1 μM, secondary screening of 87 hit compounds (Table S1).
Where [10] appears, read: 10 μM, secondary screening of 87 hit compounds (Table S1).
Where [11] appears, read: 0.01 μM (first column so headed), third screening of 25 hit compounds (Table S2).
The mark [12] stands for this setting: 0.01 μM (second column so headed), third screening of 25 hit compounds (Table S2).
The mark [13] stands for this setting: 0.1 μM, third screening of 25 hit compounds (Table S2).
The mark [14] stands for this setting: 1 μM, third screening of 25 hit compounds (Table S2).
Where [15] appears, read: 10 μM, third screening of 25 hit compounds (Table S2).
[16] abbreviates: 0.01 μM (first column so headed), third screening of 25 hit compounds (Table S2), read-out: Invasion rates (%) of each drug’s multiple concentrations.
[17] abbreviates: 0.01 μM (second column so headed), third screening of 25 hit compounds (Table S2), read-out: Invasion rates (%) of each drug’s multiple concentrations.
Where [18] appears, read: 0.1 μM, third screening of 25 hit compounds (Table S2), read-out: Invasion rates (%) of each drug’s multiple concentrations.
Setting [19] is: 1 μM, third screening of 25 hit compounds (Table S2), read-out: Invasion rates (%) of each drug’s multiple concentrations.
Where [20] appears, read: 10 μM, third screening of 25 hit compounds (Table S2), read-out: Invasion rates (%) of each drug’s multiple concentrations.

For `Cc1ccc(C(=O)Nc2ccc(CN3CCN(C)CC3)c(C(F)(F)F)c2)cc1C#Cc1cnc2cccnn12` [Ponatinib], the activity at 0.01 µM was found to be 94.4% (read-out: Invasion rates (%) of each drug’s multiple concentrations (μM), 0.01 μM (first column so headed), secondary screening of 87 hit compounds (Table S1)) and 94.5% (read-out: Invasion rates (%) of each drug’s multiple concentrations (μM), 0.01 μM (second column so headed), secondary screening of 87 hit compounds (Table S1)). Moreover, the activity at 0.1 µM (read-out: Invasion rates (%) of each drug’s multiple concentrations (μM), 0.1 μM, secondary screening of 87 hit compounds (Table S1)) came to 94.8%. Also, for the setting “read-out: Invasion rates (%) of each drug’s multiple concentrations (μM), 1 μM, secondary screening of 87 hit compounds (Table S1)”, the activity at 1 µM is 91%. Further, the activity at 10 µM (read-out: Invasion rates (%) of each drug’s multiple concentrations (μM), 10 μM, secondary screening of 87 hit compounds (Table S1)) came out at 17.7%.
For `Cc1ncc([N+](=O)[O-])n1CCO` [Metronidazole], the activity at 0.01 µM under setting [1] is 93.6% and the activity at 0.01 µM under setting [2] stood at 93.9%. Further, the activity at 0.1 µM under setting [3] is 94.1%. Moreover, under setting [4], the activity at 1 µM is 85.7%. The activity at 10 µM under setting [5] was determined as 10.1%.
On to `CNc1ncc(-c2ccc3c(=O)c(C(=O)O)cn(C4CC4)c3c2C)cc1C` [Ozenoxacin], for which the “Invasion rates (%) of each drug’s multiple concentrations (μM)” value (from here on “Invasion rates (%)”) runs as follows: under setting [6], 96.05%; under setting [7], 100.15%; under setting [8], 94.32%; under setting [9], 88.16%; under setting [10], 4.14%.
Regarding `C=C1c2cccc(O)c2C(O)=C2C(=O)[C@]3(O)C(O)=C(C(N)=O)C(=O)[C@@H](N(C)C)[C@@H]3[C@@H](O)[C@H]12.Cl` [Methacycline (hydrochloride)], the “Invasion rates (%)” value runs as follows: under setting [6], 68.21%; under setting [11], 93.06%; under setting [7], 75.44%; under setting [12], 92.10%; under setting [8], 57.31%; under setting [13], 89.39%. For the same compound, the “Invasion rates (%)” value reads like this: under setting [9], 4.98%; under setting [14], 5.12%; under setting [10], 3.07%; under setting [15], 2.20%.
Take `CC1CS(=O)(=O)CCN1/N=C/c1ccc([N+](=O)[O-])o1` (stereo not drawn) [Nifurtimox]: the activity at 0.01 µM is 96.2% under setting [1], 97% under setting [16], 96.2% under setting [2] and 97.5% under setting [17]. The activity at 0.1 µM by setting is: under setting [3], 78.6%; under setting [18], 93.5%. Also, the activity at 1 µM under setting [4] was 32.4% and the activity at 1 µM under setting [19] stood at 5.05%. The activity at 10 µM by setting is: under setting [5], 1.95%; under setting [20], 0.53%.
As to `CC/C(=C(\c1ccccc1)c1ccc(OCCN(C)C)cc1)c1ccccc1` [Tamoxifen], the activity at 0.01 µM under setting [1] is 96.2% and the activity at 0.01 µM under setting [2] was determined as 95.4%. Moreover, under setting [3], the activity at 0.1 µM was determined as 97%. In addition, under setting [4], the activity at 1 µM amounted to 91.1%. Further, under setting [5], the activity at 10 µM came out at 24.3%.
As to `COc1ccc2c3c1O[C@H]1C[C@@H](O)C=C[C@@]31CCN(C)C2` [Galanthamine], the activity at 0.01 µM under setting [1] turned out to be 86.8%. Moreover, the activity at 0.1 µM under setting [3] came out at 88.4%. Also, the activity at 1 µM under setting [4] amounted to 83.3%. In addition, under setting [5], the activity at 10 µM turned out to be 15.1%.
As to `CCN1CCN(Cc2ccc(Nc3ncc(F)c(-c4cc(F)c5nc(C)n(C(C)C)c5c4)n3)nc2)CC1.CS(=O)(=O)O` [Abemaciclib (methanesulfonate)], the “Invasion rates (%)” value is, setting by setting: under setting [6], 93.33%; under setting [7], 94.22%; under setting [8], 93.89%; under setting [9], 89.88%; under setting [10], 47.24%.
`CS(=O)(=O)c1ccc([C@@H](O)[C@@H](CO)NC(=O)C(Cl)Cl)cc1` [Thiamphenicol]: the activity at 0.01 µM runs as follows: under setting [1], 90.9%; under setting [2], 92%. Under setting [3], the activity at 0.1 µM is 91.7%. Also, the activity at 1 µM under setting [4] turned out to be 71.5%. For the same compound, under setting [5], the activity at 10 µM was found to be 6.21%.
In the case of `CN(C)c1ccc(O)c2c1C[C@H]1C[C@H]3[C@H](N(C)C)C(=O)C(C(N)=O)=C(O)[C@@]3(O)C(=O)C1=C2O.Cl` [Minocycline (hydrochloride)], the “Invasion rates (%)” value is recorded as 87.07% under setting [6]; 98.27% under setting [7]; 80.93% under setting [8]; 62.17% under setting [9]; 5.40% under setting [10].
On to `CNC[C@H](O)c1cccc(O)c1.Cl` [(R)-(-)-Phenylephrine (hydrochloride)], for which the “Invasion rates (%)” value under setting [6] amounted to 103.19%; the “Invasion rates (%)” value under setting [7] is 103.23%; the “Invasion rates (%)” value under setting [8] is 98.23%; the “Invasion rates (%)” value under setting [9] amounted to 96.01%; the “Invasion rates (%)” value under setting [10] came out at 4.27%.
Take `COc1cc2ncnc(Nc3ccc(F)c(Cl)c3)c2cc1OCCCN1CCOCC1` [Gefitinib]: the activity at 0.01 µM runs as follows: under setting [1], 86.8%; under setting [2], 85.3%. Also, under setting [3], the activity at 0.1 µM was 77.8%. The activity at 1 µM under setting [4] came out at 60.2%. The activity at 10 µM under setting [5] was 27.4%.
On to `C=CC(=O)Nc1cc(Nc2nccc(-c3cn(C)c4ccccc34)n2)c(OC)cc1N(C)CCN(C)C` [Osimertinib], for which the activity at 0.01 µM came to 89% under setting [1] and 98.8% under setting [2]. The activity at 0.1 µM under setting [3] is 86.4%. Further, the activity at 1 µM under setting [4] was 83.8%. Besides, the activity at 10 µM under setting [5] was determined as 5.6%.
`CC(C)C[C@H](NC(=O)CNC(=O)c1cc(Cl)ccc1Cl)B1OC(=O)C(CC(=O)O)(CC(=O)O)O1` [Ixazomib citrate]: the activity at 0.01 µM under setting [1] stood at 69.8%, the activity at 0.01 µM under setting [16] was 100%, the activity at 0.01 µM under setting [2] came out at 81.3% and the activity at 0.01 µM under setting [17] amounted to 96.7%. Moreover, the activity at 0.1 µM was determined as 26.9% under setting [3] and 91.4% under setting [18]. Also, the activity at 1 µM reads like this: under setting [4], 1.95%; under setting [19], 54.2%. For the same compound, the activity at 10 µM by setting is: under setting [5], 1.55%; under setting [20], 0.4%.
For `CN1C[C@@H]2C[C@H]1CN2c1cc2c(cc1F)c(=O)c(C(=O)O)cn2C1CC1.CS(=O)(=O)O` [Danofloxacin (mesylate)], the “Invasion rates (%)” value runs as follows: under setting [6], 94.09%; under setting [11], 93.23%; under setting [7], 90.56%; under setting [12], 98.11%; under setting [8], 86.22%; under setting [13], 87.17%. Further, the “Invasion rates (%)” value is 14.57% under setting [9], 77.40% under setting [14], 3.38% under setting [10] and 2.06% under setting [15].
Turning to `CNC(=O)c1cc(Oc2ccc(NC(=O)Nc3ccc(Cl)c(C(F)(F)F)c3)cc2)ccn1` [Sorafenib], the activity at 0.01 µM under setting [1] was determined as 91.9% and the activity at 0.01 µM under setting [2] was 101%. In addition, the activity at 0.1 µM under setting [3] was 91.9%. Besides, under setting [4], the activity at 1 µM was 76.2%. Also, under setting [5], the activity at 10 µM was found to be 43.3%.
